# Assay results: patent US8592451B2, “Reversible nondepolarizing neuromuscular blockade agents and methods for their use” (Cornell University, priority 2009, dated 2013)
# Tested on: twitch of the extensor digitorum
# Assay: Neuromuscular blocking potency and duration in anesthetized rhesus monkeys
# Format: in vivo, rhesus monkeys (Macaca mulatta)
# Conditions: in vivo, comparable level of neuromuscular blockade
smiles,measurement,value
COc1ccc(C[C@@H]2c3cc(OC)c(OC)cc3CC[N@@+]2(C)CCCOC(=O)/C=C\C(=O)OCCC[N@+]2(C)CCc3cc(OC)c(OC)cc3[C@H]2Cc2cc(OC)c(OC)c(OC)c2)cc1OC [CW 011],potency relative to CW 002,approximately twice
same,potency relative to gantacurium,four times
